IC50 data for one compound are collected here from patent US20080188483A1, “Compounds and Compositions as Protein Kinase Inhibitors” (IRM LLC, priority 2006, published 2008).

What is called IC50 is the midpoint of a concentration-inhibition curve. The low end stands for greater potency in that assay, the high end for weaker potency in that assay.

One test addresses T1, purified FGFR3 (Upstate) (Homo sapiens, UniProt P22607).
T1 construct: purchased Upstate
The test is described as follows: FGFR3 enzymatic assay (HTRF). It counts as biochemical. Here is the method:
Kinase activity assay with purified FGFR3 (Upstate) is carried out in a final volume of 10 μL containing 0.25 μg/mL of enzyme in kinase buffer (30 mM Tris-HCl pH7.5, 15 mM MgCl2, 4.5 mM MnCl2, 15 μM Na3VO4 and 50 μg/mL BSA), and substrates (5 μg/mL biotin-poly-EY(Glu, Tyr) (CIS-US, Inc.) and 3 μM ATP). Two solutions are made: the first solution of 5 μl contains the FGFR3 enzyme in kinase buffer was first dispensed into 384-format ProxiPlate® (Perkin-Elmer) followed by adding 50 nL of compounds dissolved in DMSO, then 5 μl of second solution contains the substrate (poly-EY) and ATP in kinase buffer was added to each wells. The reactions are incubated at room temperature for one hour, stopped by adding 10 μL of HTRF detection mixture, which contains 30 mM Tris-HCl pH7.5, 0.5 M KF, 50 mM ETDA, 0.2 mg/mL BSA, 15 μg/mL streptavidin-XL665 (CIS-US, Inc.) and 150 ng/mL cryptate conjugated anti-phosphotyrosine antibody (CIS-US, Inc.). After one hour of room temperature incubation to allow for streptavidin-biotin interaction, time resolved florescent signals are read on Analyst GT (Molecular Devices Corp.). IC50 values are calculated by linear regression analysis of the percentage inhibition of each compound at 12 concentrations (1:3 dilution from 50 μM to 0.28 nM).
In general terms: TR-FRET usually uses a lanthanide donor and a delayed reading to cut background.

Test [1] addresses T2, FGFR3 (Ba/F3-TEL-FGFR3 cells) (Homo sapiens, UniProt P22607).
T2 construct: expressed in transfected cells; host or cells: Ba/F3; the other entry of the earlier key: ETV6 (P41212, Transcription factor ETV6)
The test is described as follows: FGFR3 cellular assay (Ba/F3-TEL-FGFR3 proliferation). It counts as cell-based. On the procedure:
Compounds of the invention are tested for their ability to inhibit transformed Ba/F3-TEL-FGFR3 cells proliferation, which is depended on FGFR3 cellular kinase activity. Ba/F3-TEL-FGFR3 are cultured up to 800,000 cells/mL in suspension, with RPMI 1640 supplemented with 10% fetal bovine serum as the culture medium. Cells are dispensed into 384-well format plate at 5000 cell/well in 50 μL culture medium. Compounds of the invention are dissolved and diluted in dimethylsulfoxide (DMSO). Twelve points 1:3 serial dilutions are made into DMSO to create concentrations gradient ranging typically from 10 mM to 0.05 μM. Cells are added with 50 nL of diluted compounds and incubated for 48 hours in cell culture incubator. AlamarBlue® (TREK Diagnostic Systems), which can be used to monitor the reducing environment created by proliferating cells, are added to cells at final concentration of 10%. After additional four hours of incubation in a 37° C. cell culture incubator, fluorescence signals from reduced AlamarBlue® (Excitation at 530 nm, Emission at 580 nm) are quantified on Analyst GT (Molecular Devices Corp.). IC50 values are calculated by linear regression analysis of the percentage inhibition of each compound at 12 concentrations.

T2 sequence (P22607 472-761 limits assumed): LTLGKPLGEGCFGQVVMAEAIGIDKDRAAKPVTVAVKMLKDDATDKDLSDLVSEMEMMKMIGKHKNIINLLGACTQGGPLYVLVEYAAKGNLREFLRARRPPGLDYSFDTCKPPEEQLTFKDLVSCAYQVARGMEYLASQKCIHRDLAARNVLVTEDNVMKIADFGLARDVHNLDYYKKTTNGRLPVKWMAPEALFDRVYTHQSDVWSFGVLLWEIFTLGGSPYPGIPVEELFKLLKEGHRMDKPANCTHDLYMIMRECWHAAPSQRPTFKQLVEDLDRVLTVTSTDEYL
T1 sequence (P22607 23-806): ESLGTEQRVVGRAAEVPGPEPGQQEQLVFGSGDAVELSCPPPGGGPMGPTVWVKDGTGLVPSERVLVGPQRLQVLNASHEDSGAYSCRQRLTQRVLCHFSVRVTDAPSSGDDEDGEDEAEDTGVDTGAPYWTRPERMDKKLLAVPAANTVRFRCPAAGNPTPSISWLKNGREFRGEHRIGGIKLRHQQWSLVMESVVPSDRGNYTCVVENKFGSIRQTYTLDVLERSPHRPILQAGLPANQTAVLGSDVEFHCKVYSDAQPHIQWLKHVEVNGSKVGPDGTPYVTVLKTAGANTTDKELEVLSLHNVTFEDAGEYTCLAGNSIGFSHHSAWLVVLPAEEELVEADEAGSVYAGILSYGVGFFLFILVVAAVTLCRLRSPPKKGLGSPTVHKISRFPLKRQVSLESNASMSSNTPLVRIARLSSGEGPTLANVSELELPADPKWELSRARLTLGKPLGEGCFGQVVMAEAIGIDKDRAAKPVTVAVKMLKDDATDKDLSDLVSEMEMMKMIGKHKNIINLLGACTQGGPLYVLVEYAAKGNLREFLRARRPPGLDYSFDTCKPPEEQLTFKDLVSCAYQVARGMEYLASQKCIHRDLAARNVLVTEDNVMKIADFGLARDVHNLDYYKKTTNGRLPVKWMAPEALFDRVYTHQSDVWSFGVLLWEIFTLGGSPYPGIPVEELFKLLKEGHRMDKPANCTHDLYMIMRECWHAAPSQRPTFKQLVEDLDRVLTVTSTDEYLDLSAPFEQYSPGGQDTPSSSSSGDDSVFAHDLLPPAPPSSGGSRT

As to `CCN1CCN(Cc2ccc(NC(=O)c3cc(Nc4nccn4-c4ncnc5[nH]ccc45)cc(OC)c3)cc2C(F)(F)F)CC1` [Compound 9, N-[4-(4-ethyl-piperazin-1-ylmethyl)-3-trifluoromethyl-phenyl]-3-methoxy-5-[1-(7H-pyrrolo[2,3-d]pyrimidin-4-yl)-1H-imidazol-2-ylamino]-benzamide], the results for the IC50 (on purified FGFR3 (Upstate); in test [1]) were 4 nM and 40 nM, respectively.
